Measured values reported in patent publication US9334256B2, “Agents and methods for treating ischemic and other diseases” (NoNO INC., priority 2011, dated 2016).

Tests used:
[1] = molecular target: T1, TRPM7 (Mus musculus, UniProt Q923J1); assay: PI uptake cell death assay in TRPM7-expressing HEK-293 cells (type of assay from Example 1); type: cell-based, murine; settings: Table X
T1 construct: expressed in transfected cells; host or cells: HEK-293 tSA (HEK-293T) cells, transient transfection with Lipofectamine 2000

[2] = test system: cancer cell lines; assay: Cell proliferation studies, cancer cell lines in general; type: cell-based; settings: summary statement
Description: Cells were grown to 70% confluency, trypsinized, counted, and seeded in 96-well flat-bottom plates at a final concentration of 2.5×10^3-5.0×10^3 cells/well in growth media containing 5% FBS (Day 0). Other well sizes and cell densities were used successfully as well. Cells were allowed to incubate in growth media for 24 hours to allow for maximum adhesion. Treatment with the test agent began on Day 1 and continued for 72 hours either with or without retreatment. At the 72 hour time point, viable cell numbers are quantified by the CellTiter-Glo® cell viability assay as described above, or using standard MTT, SRB or BrDU assays. Experiments were repeated at least twice with the same concentrations to determine growth inhibitory activity. […] In an alternative format, this assay was used to screen potential TRPM7 inhibitory compounds at a fixed concentration, usually 5 or 10 uM. Alternatively, lower or higher concentrations were used. […] Thus, for the compounds in Table 1, all are potential anti-cancer agents. Some, like 399 and 509, are more general and may be effective against a wide range of cancers. Others, like 2785, are more specific and may be effective against a subset of cancers.
Data Collection—For the cell proliferation studies, data from each experiment was collected and expressed as % Cell Growth using the following calculation: % Cell Growth=(ftest/fvehicle)×100 Where ftest is the luminescent signal of the tested sample, and fvehicle is the luminescence of the vehicle in which the drug is dissolved (or appropriate measure for the other viability/proliferation measures). Dose response graphs and IC50 values were generated using standard software using the following variable slope equation: […]

T1 sequence (Q923J1 whole entry): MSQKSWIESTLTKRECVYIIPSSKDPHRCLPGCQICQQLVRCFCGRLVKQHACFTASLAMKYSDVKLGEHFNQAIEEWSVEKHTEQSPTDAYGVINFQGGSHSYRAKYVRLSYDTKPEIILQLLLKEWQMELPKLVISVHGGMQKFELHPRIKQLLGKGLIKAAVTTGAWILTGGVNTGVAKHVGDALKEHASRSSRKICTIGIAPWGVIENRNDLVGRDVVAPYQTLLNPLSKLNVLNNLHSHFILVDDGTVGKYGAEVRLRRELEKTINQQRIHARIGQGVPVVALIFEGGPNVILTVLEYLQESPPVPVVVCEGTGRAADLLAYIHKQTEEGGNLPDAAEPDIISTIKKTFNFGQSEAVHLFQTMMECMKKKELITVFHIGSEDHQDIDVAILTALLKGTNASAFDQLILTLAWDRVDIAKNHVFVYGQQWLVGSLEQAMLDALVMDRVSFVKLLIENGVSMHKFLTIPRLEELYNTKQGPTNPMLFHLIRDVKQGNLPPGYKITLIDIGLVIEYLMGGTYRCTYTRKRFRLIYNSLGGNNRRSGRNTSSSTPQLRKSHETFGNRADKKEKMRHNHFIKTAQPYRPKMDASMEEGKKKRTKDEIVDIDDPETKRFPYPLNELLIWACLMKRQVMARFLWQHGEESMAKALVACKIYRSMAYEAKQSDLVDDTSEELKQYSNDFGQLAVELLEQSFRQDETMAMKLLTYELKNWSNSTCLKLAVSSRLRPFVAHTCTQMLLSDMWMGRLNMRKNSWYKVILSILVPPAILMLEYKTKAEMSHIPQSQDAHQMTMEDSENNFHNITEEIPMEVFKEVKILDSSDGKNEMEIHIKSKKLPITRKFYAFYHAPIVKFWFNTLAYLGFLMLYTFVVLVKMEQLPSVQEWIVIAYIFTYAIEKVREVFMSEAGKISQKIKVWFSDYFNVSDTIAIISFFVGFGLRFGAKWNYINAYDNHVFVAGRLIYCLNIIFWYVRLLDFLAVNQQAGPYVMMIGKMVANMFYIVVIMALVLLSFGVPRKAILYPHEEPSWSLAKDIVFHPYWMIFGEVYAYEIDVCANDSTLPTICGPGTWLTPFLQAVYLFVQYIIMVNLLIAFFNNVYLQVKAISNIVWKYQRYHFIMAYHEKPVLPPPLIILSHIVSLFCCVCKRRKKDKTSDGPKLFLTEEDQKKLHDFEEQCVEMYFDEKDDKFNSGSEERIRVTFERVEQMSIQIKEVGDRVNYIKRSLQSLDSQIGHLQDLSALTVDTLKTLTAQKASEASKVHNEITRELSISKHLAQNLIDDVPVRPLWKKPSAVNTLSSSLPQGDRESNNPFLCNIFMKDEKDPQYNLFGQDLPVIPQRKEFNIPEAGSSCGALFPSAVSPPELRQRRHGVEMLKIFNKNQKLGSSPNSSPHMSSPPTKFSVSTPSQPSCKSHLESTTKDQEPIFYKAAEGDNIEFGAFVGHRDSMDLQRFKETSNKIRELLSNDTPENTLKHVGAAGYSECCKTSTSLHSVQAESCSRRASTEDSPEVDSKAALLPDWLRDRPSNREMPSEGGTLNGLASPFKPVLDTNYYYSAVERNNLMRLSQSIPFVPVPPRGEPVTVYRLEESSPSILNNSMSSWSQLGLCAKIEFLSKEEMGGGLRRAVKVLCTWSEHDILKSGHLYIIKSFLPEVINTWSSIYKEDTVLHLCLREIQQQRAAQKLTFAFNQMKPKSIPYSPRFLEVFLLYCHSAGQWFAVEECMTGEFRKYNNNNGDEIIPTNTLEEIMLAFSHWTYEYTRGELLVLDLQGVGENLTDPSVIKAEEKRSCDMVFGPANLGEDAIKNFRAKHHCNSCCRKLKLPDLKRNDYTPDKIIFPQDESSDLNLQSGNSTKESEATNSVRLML

With `Cc1c(Cc2ccc(Cl)c(Cl)c2)c(=O)oc2cc(O)ccc12` [Compound M21] the IC50 [1] was 4.97 µM and the “inhibition of proliferation of cancer cell lines” value [2] was “effective in inhibiting proliferation of a retinoblastoma cell line”.
